The text below walks through data of patent US11566007B2, “Ras inhibitors” (Revolution Medicines, Inc., priority 2019, dated 2023).

Where two headings read alike, the source gives them in different places.

For assay [1], the system named is NCI-H358 cells (K-Ras G12C). Briefly: Potency assay: pERK in NCI-H358 cells. It is filed as cell-based, human. As to conditions: H358 KRAS G12C, read-out: pERK EC50. The method, then: The purpose of this assay is to measure the ability of test compounds to inhibit K-Ras in cells. […] This procedure measures a decrease in cellular pERK in response to test compounds.
NCI-H358 cells were grown and maintained using media and procedures recommended by the ATCC. On the day prior to compound addition, cells were plated in 384-well cell culture plates (40 μl/well) and grown overnight in a 37° C., 5% CO2 incubator. Test compounds were prepared in 10, 3-fold dilutions in DMSO, with a high concentration of 10 mM. On the day of assay, 40 nL of test compound was added to each well of cell culture plate using an Echo550 liquid handler (LabCyte®). Concentrations of test compound were tested in duplicate. After compound addition, cells were incubated 4 hours at 37° C., 5% CO2. Following incubation, culture medium was removed and cells were washed once with phosphate buffered saline.
In some experiments, cellular pERK level was determined using the AlphaLISA SureFire Ultra p-ERK1/2 Assay Kit (PerkinElmer). Cells were lysed in 25 μL lysis buffer, with shaking at 600 RPM at room temperature. […] After a 2-hour incubation in the dark, 5 μL donor mix was added, plate was sealed, and incubated 2 hours at room temperature. Signal was read on an Envision plate reader (PerkinElmer) using standard AlphaLISA settings. Analysis of raw data was carried out in Excel (Microsoft) and Prism (GraphPad). Signal was plotted vs. the decadal logarithm of compound concentration, and IC50 was determined by fitting a 4-parameter sigmoidal concentration response model.
In other experiments, cellular pERK was determined by In-Cell Western. […] Fixed cells were washed 4 times for 5 minutes with TBS containing 0.1% Triton X-100 (TBST) and then blocked with 100 μL Odyssey blocking buffer (LI-COR) for 60 minutes at room temperature. […] Cells were washed 4 times for 5 minutes with TBST. Secondary antibody (IR-800CW rabbit, LI-COR, diluted 1:800) and DNA stain DRAQS (LI-COR, diluted 1:2000) were added and incubated 1-2 hours at room temperature. Cells were washed 4 times for 5 minutes with TBST. Plates were scanned on a Li-COR Odyssey CLx Imager. Analysis of raw data was carried out in Excel (Microsoft) and Prism (Graph Pad). Signal was plotted vs. the decadal logarithm of compound concentration, and IC50 was determined by fitting a 4-parameter sigmoidal concentration response model.

For assay [2], the system named is NCI-H358 (K-Ras G12C). Put plainly: CellTiter-Glo cell viability assay, NCI-H358. It is filed as cell-based, human. The following applies: NCI-H358, 5-day treatment, class symbols, read-out: Additional H358 Cell Viability assay data (K-Ras G12C, IC50). The procedure: Note—The following protocol describes a procedure for monitoring cell viability of K-Ras mutant cancer cell lines in response to a compound of the invention. Other RAS isoforms may be employed, though the number of cells to be seeded will vary based on cell line used.
Test compounds (132.5 nL) were directly dispensed into the assay plates containing cells. […] On day 5, assay plates and their contents were equilibrated to room temperature for approximately 30 minutes. […] Luminescence was measured using the PerkinElmer Enspire. Data were normalized by the following: (Sample signal/Avg. DMSO)*100. The data were fit using a four-parameter logistic fit.

For the molecule `C=CC(=O)N1CC[C@H](C(=O)N(C)[C@H](C(=O)N[C@H]2Cc3cc(O)cc(c3)-c3cc(F)c4c(c3)c(c(-c3ccccc3CCOC)n4CC)CC(C)(C)COC(=O)[C@@H]3CCCN(N3)C2=O)C(C)C)C1` (atropisomer, axis not shown) [Example A53], the EC50 (usually the concentration giving half of the maximal effect) in assay [1] (Homo sapiens, NCI-H358) was under 5 µM. Moreover, the concentration for half-maximal inhibition (IC50) (usually the concentration that gives 50% inhibition) in assay [2] (Homo sapiens, NCI-H358, 120 h) lay in the range of 0.1 to 1 µM.

Regarding `CC#CC(=O)N1CC[C@H](C(=O)N(C)[C@@H](C(=O)N[C@H]2Cc3cc(O)cc(c3)-c3ccc4c(c3)c(c(-c3cccnc3[C@H](C)OC)n4CC)CC(C)(C)COC(=O)[C@@H]3CCCN(N3)C2=O)C(C)C)C1` (atropisomer, axis not shown) [Example A199], in assay [1], the EC50 is under 5 µM. For the same molecule, the IC50 in assay [2] lay in the range of 0.1 to 1 µM.

Turning to `C=CC(=O)N1CC[C@H](C(=O)N(C)[C@H](C(=O)N[C@H]2Cc3cc(O)cc(c3)-c3ccc4c(c3)c(c(-c3cccnc3[C@H](C)OC)n4CC)CC(C)(C)COC(=O)[C@@H]3CCCN(N3)C2=O)C(C)C)C1` (atropisomer, axis not shown; (M)) [Example A75, (2S)-N-[(8S,14S,20M)-22-ethyl-4-hydroxy-21-{2-[(1S)-1-methoxyethyl]pyridin-3-yl}-18,18-dimethyl-9,15-dioxo-16-oxa-10,22,28-triazapentacyclo[18.5.2.1^2,^6.1^10,^14.0^23,^27]nonacosa-1(26),2,4,6(29),20,23(27),24-heptaen-8-yl]-3-methyl-2-{N-methyl-1-[(3S)-1-(prop-2-enoyl)pyrrolidin-3-yl]formamido}butanamide], the EC50 in assay [1] (Homo sapiens, NCI-H358) was under 5 µM. Moreover, the half-inhibitory concentration (IC50) is 0.01 to 0.1 µM in assay [2] (Homo sapiens, NCI-H358, 120 h) and under 0.01 µM in assay [2].

`C=CC(=O)N1CC[C@H](C(=O)N(C)[C@H](C(=O)N[C@H]2Cc3cc(O)cc(c3)-c3ccc4c(c3)c(c(-c3ccc(CN5CC[C@@H](O)C5)cc3)n4CC)CC(C)(C)COC(=O)[C@@H]3CCCN(N3)C2=O)C(C)C)C1` [Example A1]: the concentration for a half-maximal effect (EC50) in assay [1] (Homo sapiens, NCI-H358) is under 5 µM. In addition, the IC50 in assay [2] (Homo sapiens, NCI-H358, 120 h) was in the range of 0.1 to 1 µM.

On to `C=CC(=O)N1CC[C@H](C(=O)N(C)[C@H](C(=O)N[C@H]2Cc3cc(N)cc(c3)-c3ccc4c(c3)c(c(-c3ccccc3CCOC)n4CC)CC(C)(C)COC(=O)[C@@H]3CCCN(N3)C2=O)C(C)C)C1` [Example A2, (2S)-N-[(8S,14S)-4-amino-22-ethyl-21-[2-(2-methoxyethyl)phenyl]-18,18-dimethyl-9,15-dioxo-16-oxa-10,22,28-triazapentacyclo[18.5.2.1^2,^6.1^10,^14.0^23,^27]nonacosa-1(26),2,4,6(29),20,23(27),24-heptaen-8-yl]-3-methyl-2-{N-methyl-1-[(3S)-1-(prop-2-enoyl)pyrrolidin-3-yl]formamido}butanamide], for which the concentration for a half-maximal effect (EC50) in assay [1] (Homo sapiens, NCI-H358) was under 5 µM. Moreover, the IC50 in assay [2] (Homo sapiens, NCI-H358, 120 h) is over 1 µM.

`C=CC(=O)N1CC[C@H](C(=O)N(C)[C@H](C(=O)N[C@H]2Cc3cc(O)cc(c3)-c3ccc4c(c3)c(c(-c3ccc(CN(C)C)cc3)n4CC)CC(C)(C)COC(=O)[C@@H]3CCCN(N3)C2=O)C(C)C)C1` [Example A3]: the EC50 in assay [1] (Homo sapiens, NCI-H358) is under 5 µM. In addition, the half-maximal inhibitory concentration (IC50) in assay [2] (Homo sapiens, NCI-H358, 120 h) was 0.1 to 1 µM.

`C=CC(=O)N1CC[C@H](C(=O)N(C)[C@H](C(=O)N[C@H]2Cc3cc(O)cc(c3)-c3ccc4c(c3)c(c(-c3ccccc3CN(C)C)n4CC)CC(C)(C)COC(=O)[C@@H]3CCCN(N3)C2=O)C(C)C)C1` [Example A5]: the concentration for a half-maximal effect (EC50) in assay [1] (Homo sapiens, NCI-H358) is under 5 µM. In assay [2] (Homo sapiens, NCI-H358, 120 h), the 50% inhibitory concentration (IC50) lay within 0.01 to 0.1 µM.

`C=CC(=O)N1CC[C@H](C(=O)N(C)[C@H](C(=O)N[C@H]2Cc3cc(O)cc(c3)-c3ccc4c(c3)c(c(-c3ccccc3CCOC)n4CC)CC(C)(C)COC(=O)[C@@H]3CCCN(N3)C2=O)C2CCOCC2)C1` [Example A6]: the EC50 in assay [1] (Homo sapiens, NCI-H358) was under 5 µM. Further, the IC50 in assay [2] (Homo sapiens, NCI-H358, 120 h) fell in the range of 0.1 to 1 µM.

For the molecule `C=CC(=O)N1CC[C@H](C(=O)N(C)[C@H](C(=O)N[C@H]2Cc3cc(OC(=O)CCN4CCN(C)CC4)cc(c3)-c3ccc4c(c3)c(c(-c3ccccc3CCOC)n4CC)CC(C)(C)COC(=O)[C@@H]3CCCN(N3)C2=O)C(C)C)C1` [Example A7], in assay [1] (Homo sapiens, NCI-H358), the EC50 was under 5 µM. In assay [2] (Homo sapiens, NCI-H358, 120 h), the 50% inhibitory concentration (IC50) was 0.1 to 1 µM.

`C=CC(=O)N1CC[C@H](C(=O)N(C)[C@H](C(=O)N[C@H]2Cc3cc(OC(=O)CN)cc(c3)-c3ccc4c(c3)c(c(-c3ccccc3CCOC)n4CC)CC(C)(C)COC(=O)[C@@H]3CCCN(N3)C2=O)C(C)C)C1` [Example A8]: the concentration for a half-maximal effect (EC50) in assay [1] (Homo sapiens, NCI-H358) is under 5 µM. For the same molecule, in assay [2] (Homo sapiens, NCI-H358, 120 h), the half-maximal inhibitory concentration (IC50) lay within 0.1 to 1 µM.

As for `C=CC(=O)N1CC[C@H](C(=O)N(C)[C@H](C(=O)N[C@H]2Cc3cc(cc(O)c3F)-c3ccc4c(c3)c(c(-c3ccccc3CCOC)n4CC)CC(C)(C)COC(=O)[C@@H]3CCCN(N3)C2=O)C(C)C)C1` [Example A9], the EC50 in assay [1] (Homo sapiens, NCI-H358) was under 5 µM. Further, the IC50 in assay [2] (Homo sapiens, NCI-H358, 120 h) fell in the range of 0.1 to 1 µM.

In the case of `C=CC(=O)N1CC[C@H](C(=O)N(C)[C@H](C(=O)N[C@H]2Cc3cc(O)cc(c3)-c3ccc4c(c3)c(c(-c3ccc(CN5CCCC5)cc3)n4CC)CC(C)(C)COC(=O)[C@@H]3CCCN(N3)C2=O)C(C)C)C1` [Example A10], the 50% effective concentration (EC50) in assay [1] (Homo sapiens, NCI-H358) is under 5 µM. For the same molecule, the IC50 in assay [2] (Homo sapiens, NCI-H358, 120 h) lay within 0.01 to 0.1 µM.

As to `C=CC(=O)N1CCC(F)(C(=O)N(C)[C@H](C(=O)N[C@H]2Cc3cc(O)cc(c3)-c3ccc4c(c3)c(c(-c3ccccc3CCOC)n4CC)CC(C)(C)COC(=O)[C@@H]3CCCN(N3)C2=O)C(C)C)CC1` [Example A11], in assay [1] (Homo sapiens, NCI-H358), the concentration giving a half-maximal response (EC50) is under 5 µM. Also, the IC50 in assay [2] (Homo sapiens, NCI-H358, 120 h) was 0.1 to 1 µM.

In the case of `C=CC(=O)N1CCCN(C(=O)N(C)[C@H](C(=O)N[C@H]2Cc3cc(O)cc(c3)-c3ccc4c(c3)c(c(-c3ccccc3CCOC)n4CC)CC(C)(C)COC(=O)[C@@H]3CCCN(N3)C2=O)C(C)C)CC1` [Example A13], the EC50 in assay [1] (Homo sapiens, NCI-H358) was under 5 µM. Further, in assay [2] (Homo sapiens, NCI-H358, 120 h), the half-maximal inhibitory concentration (IC50) is 0.1 to 1 µM.

For `C=CC(=O)N1CCC(C(=O)N(C)[C@H](C(=O)N[C@H]2Cc3cc(O)cc(c3)-c3ccc4c(c3)c(c(-c3ccccc3CCOC)n4CC)CC(C)(C)COC(=O)[C@@H]3CCCN(N3)C2=O)C(C)C)CC1` [Example A14], the concentration giving a half-maximal response (EC50) in assay [1] (Homo sapiens, NCI-H358) was under 5 µM. Besides, the 50% inhibitory concentration (IC50) in assay [2] (Homo sapiens, NCI-H358, 120 h) lay in the range of 0.1 to 1 µM.

With `C=CC(=O)N1CC[C@H](C(=O)N(C)[C@H](C(=O)N[C@H]2Cc3cc(O)cc(c3)-c3ccc4c(c3)c(c(-c3cccnc3COC)n4CC)CC(C)(C)COC(=O)[C@@H]3CCCN(N3)C2=O)C(C)C)C1` [Example A16], the concentration for a half-maximal effect (EC50) in assay [1] (Homo sapiens, NCI-H358) was under 5 µM. Besides, in assay [2] (Homo sapiens, NCI-H358, 120 h), the IC50 is 0.01 to 0.1 µM.

In the case of `C=CC(=O)N1CC[C@H](C(=O)N(C)[C@H](C(=O)N[C@H]2Cc3cc(O)cc(c3)-c3ccc4c(c3)c(c(-c3ccccc3OC)n4CC)CC(C)(C)COC(=O)[C@@H]3CCCN(N3)C2=O)C(C)C)C1` [Example A17], in assay [1] (Homo sapiens, NCI-H358), the EC50 was under 5 µM. For the same molecule, the half-maximal inhibitory concentration (IC50) in assay [2] (Homo sapiens, NCI-H358, 120 h) was 0.1 to 1 µM.

On to `C=CC(=O)N1CCN(C(=O)N(C)[C@H](C(=O)N[C@H]2Cc3cc(O)cc(c3)-c3ccc4c(c3)c(c(-c3ccccc3CCOC)n4CC)CC(C)(C)COC(=O)[C@@H]3CCCN(N3)C2=O)C(C)C)CC1` [Example A18], for which the EC50 in assay [1] (Homo sapiens, NCI-H358) was under 5 µM. In addition, the half-maximal inhibitory concentration (IC50) in assay [2] (Homo sapiens, NCI-H358, 120 h) is 0.1 to 1 µM.

`CCn1c(-c2ccccc2CCOC)c2c3cc(ccc31)-c1cc(O)cc(c1)C[C@H](NC(=O)[C@H](C(C)C)N(C)C(=O)C1CCN(C(=O)/C=C/CN(C)C)CC1)C(=O)N1CCC[C@H](N1)C(=O)OCC(C)(C)C2` [Example A19]: the EC50 in assay [1] (Homo sapiens, NCI-H358) is under 5 µM. Further, the IC50 in assay [2] (Homo sapiens, NCI-H358, 120 h) was 0.1 to 1 µM.

With `C=CC(=O)N1CCC(F)(C(=O)N(C)[C@H](C(=O)N[C@H]2Cc3cc(O)cc(c3)-c3ccc4c(c3)c(c(-c3ccccc3CN(C)C)n4CC)CC(C)(C)COC(=O)[C@@H]3CCCN(N3)C2=O)C(C)C)CC1` [Example A20], the concentration for a half-maximal effect (EC50) in assay [1] (Homo sapiens, NCI-H358) was under 5 µM. The IC50 in assay [2] (Homo sapiens, NCI-H358, 120 h) lay within 0.01 to 0.1 µM.
